# Measurements published in patent US20220160843A1 (priority 2019, published 2022).
# Where two headings read alike, the source gives them in different places.
# B1: GN94: Modified GN37, N-terminal peptide KFFKFFKFFK with linker, SEQ ID NO: 14 (protein)
# chain: KFFKFFKFFKAGAGAGAGAGAGAGAGASMTYTLSKRSLDNLKGVHPDLVAVVHRAIQLTPVDFAVIEGLRSVSRQKELVAAGASKTMNSRHLTGHAVDLAAYVNGIRWDWPLYDAIAVAVKAAAKELGVAIVWGGDWTTFKDGPHFELDRSKYR
# B2: GN54: Modified GN4, N-terminal peptide KRKKRKKRK with linker, SEQ ID NO: 8 (protein)
# chain: KRKKRKKRKAGAGAGAGAGAGAGAGASMRTSQRGIDLIKSFEGLRLSAYQDSVGVWTIGYGTTRGVTRYMTITVEQAERMLSNDIQRFEPELDRLAKVPLNQNQWDALMSFVYNLGAANLASSTLLKLLNKGDYQGAADQFPRWVNAGGKRLDGLVKRRAAERALFLEPLS
# B3: GN146: Modified GN4, amino acid substitutions (K99D, R115H), SEQ ID NO: 4 (protein)
# chain: MRTSQRGIDLIKSFEGLRLSAYQDSVGVWTIGYGTTRGVTRYMTITVEQAERMLSNDIQRFEPELDRLAKVPLNQNQWDALMSFVYNLGAANLASSTLLDLLNKGDYQGAADQFPHWVNAGGKRLDGLVKRRAAERALFLEPLS
# Columns and labels:
# [1] = tested on: carbapenem-resistant P. aeruginosa strains; test: Resensitization of carbapenem-resistant clinical strains using carbapenems in combination with lysins; format: cell-based; details: for MIC: Pseudomonas aeruginosa, meropenem alone (GN121 checkerboard)
# Experimental: The checkerboard assays is based on a modification of the CLSI method for MIC determination by broth microdilution (26, 29). Checkerboards were constructed by first preparing columns of a 96-well polypropylene microtiter plate, in which each well had the same amount of antibiotic diluted 2-fold along the horizontal axis. […] Summation fractional inhibitory concentrations (ΣFICs) were calculated for each drug and the minimum ΣFIC value (ΣFICmin) was used to determine synergy. ΣFICs were calculated as follows: ΣFIC=FIC A+FIC B, where FIC A is the MIC of each antibiotic in the combination/MIC of each antibiotic alone, and FIC B is the MIC of each GN lysin in the combination/MIC of each GN lysin alone. The combination is considered synergistic when the ΣFIC is ≤0.5, strongly additive when the ΣFIC is >0.5 to <1, additive with the ΣFIC is 1−<2, and antagonistic when the ΣFIC is ≥2.
# Up to seven carbapenem-resistant isolates were assessed. […] See Clinical and Laboratory Standards Institute (CLSI), CLSI. […] M100 Performance Standards for Antimicrobial Susceptibility Testing; 29th Edition. Clinical and Laboratory Standards Institute, Wayne, Pa.
# P. aeruginosa [2] = test: Minimal inhibitory concentration (MIC), modified CLSI broth microdilution in CAA or CAA/HuS; format: cell-based, Pseudomonas aeruginosa; details: for MIC (μg/mL) in CAA: CAA media; for MIC (μg/mL in CAA/HuS) / MIC value in CAA/HuS: CAA supplemented with 25% human serum
# [3] = tested on: P. aeruginosa strain ATCC 17647; test: Minimal Biofilm Eradicating Concentration (MBEC), Calgary Biofilm Device; format: cell-based, Pseudomonas aeruginosa; details: 24 h biofilm, 24 h treatment; minimum concentration removing >95% of biofilm biomass (crystal violet)
# From the text: All samples were examined in triplicate.
# P. aeruginosa [4] = test: Time-kill assay of GN lysin activity; format: cell-based, Pseudomonas aeruginosa; details: lysin 10 μg/mL, T = 0 7.8; for Log10 CFU/mL T = 3 hr: buffer control 7.2, limit of detection 3.7; for Log10 CFU/mL T = l hr: buffer control 7.7
# Experimental: All treatments were incubated at 37° C. with aeration.
# [5] = CAA/HuS, ‡ indicates bactericidal activity
# [6] = HEPES buffer, ‡ indicates bactericidal activity
molecule,measurement,setting,value
"C[C@@H](O)[C@H]1C(=O)N2C(C(=O)O)=C(S[C@@H]3CN[C@H](C(=O)N(C)C)C3)[C@H](C)[C@H]12 [Meropenem, meropenem, reference compound]",MIC,"[1]; GN121, read-out: Meropenem MIC Alone, isolate PA19",32 µg/mL
same,MIC,"[1]; GN121, read-out: Meropenem MIC Alone, isolate PA21",32 µg/mL
same,MIC,"[1]; GN121, read-out: Meropenem MIC Alone, isolate PA22",16 µg/mL
same,MIC,"[1]; GN121, read-out: Meropenem MIC Alone, isolate PA23",16 µg/mL
same,MIC,"[1]; GN121, read-out: Meropenem MIC Alone, isolate PA24",32 µg/mL
same,MIC,"[1]; GN121, read-out: Meropenem MIC Alone, isolate WC-452",16 µg/mL
same,Meropenem MIC Combination,"[1]; isolate PA19, meropenem in combination with GN121",1 µg/mL
same,Meropenem MIC Combination,"[1]; isolate PA19, meropenem in combination with GN123",0.5 (S) μg/mL
same,Meropenem MIC Combination,"[1]; isolate PA20, meropenem in combination with GN121",1 µg/mL
same,Meropenem MIC Combination,"[1]; isolate PA20, meropenem in combination with GN123",0.5 (S) μg/mL
same,Meropenem MIC Combination,"[1]; isolate PA21, meropenem in combination with GN121",2 µg/mL
same,Meropenem MIC Combination,"[1]; isolate PA21, meropenem in combination with GN123",1 (S) μg/mL
same,Meropenem MIC Combination,"[1]; isolate PA22, meropenem in combination with GN121",1 µg/mL
same,Meropenem MIC Combination,"[1]; isolate PA22, meropenem in combination with GN123",1 (S) μg/mL
same,Meropenem MIC Combination,"[1]; isolate PA23, meropenem in combination with GN121",2 µg/mL
same,Meropenem MIC Combination,"[1]; isolate PA23, meropenem in combination with GN123",0.5 (S) μg/mL
same,Meropenem MIC Combination,"[1]; isolate PA24, meropenem in combination with GN121",1 µg/mL
same,Meropenem MIC Combination,"[1]; isolate PA24, meropenem in combination with GN123",2 (S) μg/mL
same,Meropenem MIC Combination,"[1]; isolate WC-452, meropenem in combination with GN121",1 µg/mL
same,Meropenem MIC Combination,"[1]; isolate WC-452, meropenem in combination with GN123",1 (S) μg/mL
"C[C@@H](O)[C@H]1C(=O)N2C(C(=O)O)=C(SCCN=CN)C[C@H]12 [Imipenem, imipenem, reference compound]",IMIPENEM MIC Combination,"[1]; isolate PA19, imipenem in combination with GN121",1 (S) μg/mL
same,IMIPENEM MIC Combination,"[1]; isolate PA19, imipenem in combination with GN123",0.5 (S) μg/mL
same,IMIPENEM MIC Combination,"[1]; isolate PA20, imipenem in combination with GN121",0.5 (S) μg/mL
same,IMIPENEM MIC Combination,"[1]; isolate PA20, imipenem in combination with GN123",1 (S) μg/mL
same,IMIPENEM MIC Combination,"[1]; isolate PA21, imipenem in combination with GN121",1 (S) μg/mL
same,IMIPENEM MIC Combination,"[1]; isolate PA21, imipenem in combination with GN123",0.5 (S) μg/mL
same,IMIPENEM MIC Combination,"[1]; isolate PA22, imipenem in combination with GN121",2 (S) μg/mL
same,IMIPENEM MIC Combination,"[1]; isolate PA22, imipenem in combination with GN123",2 (S) μg/mL
same,IMIPENEM MIC Combination,"[1]; isolate PA23, imipenem in combination with GN123",0.25 (S) μg/mL
same,IMIPENEM MIC Combination,"[1]; isolate PA24, imipenem in combination with GN121",1 (S) μg/mL
same,IMIPENEM MIC Combination,"[1]; isolate PA24, imipenem in combination with GN123",2 (S) μg/mL
same,IMIPENEM MIC Combination,"[1]; isolate WC-452, imipenem in combination with GN123",1 (S) μg/mL
B1,MIC (μg/mL) in CAA,P. aeruginosa [2],16 µg/mL
same,MIC (μg/mL in CAA/HuS),P. aeruginosa [2],2 µg/mL
same,MIC value in CAA/HuS,P. aeruginosa [2],2 µg/mL
same,MBEC,[3],2 µg/mL
same,Log10 CFU/mL T = 3 hr,P. aeruginosa [4]; [5],<3.7‡ Log10 CFU/mL
same,Log10 CFU/mL T = l hr,P. aeruginosa [4]; CAA/HuS,6.4 Log10 CFU/mL
same,Log10 CFU/mL T = 3 hr,P. aeruginosa [4]; [6],<3.7‡ Log10 CFU/mL
same,Log10 CFU/mL T = l hr,P. aeruginosa [4]; [6],6.0 Log10 CFU/mL
B2,MIC (μg/mL) in CAA,P. aeruginosa [2],64 µg/mL
same,MIC (μg/mL in CAA/HuS),P. aeruginosa [2],2 µg/mL
same,MIC value in CAA/HuS,P. aeruginosa [2],2 µg/mL
same,activity in serum,P. aeruginosa [2]; human serum,does have activity in serum
B3,MIC (μg/mL) in CAA,P. aeruginosa [2],2 µg/mL
same,MIC (μg/mL in CAA/HuS),P. aeruginosa [2],2 µg/mL
same,MIC value in CAA/HuS,P. aeruginosa [2],2 µg/mL
same,MBEC,[3],2 µg/mL
same,Log10 CFU/mL T = 3 hr,P. aeruginosa [4]; [5],4.0‡ Log10 CFU/mL
same,Log10 CFU/mL T = l hr,P. aeruginosa [4]; CAA/HuS,5.9 Log10 CFU/mL
same,Log10 CFU/mL T = 3 hr,P. aeruginosa [4]; [6],<3.7‡ Log10 CFU/mL
same,Log10 CFU/mL T = l hr,P. aeruginosa [4]; [6],6.7 Log10 CFU/mL
